Test results as given in patent publication US20130071927A1, “MEDIA AND METHODS FOR CELL CULTURE” (Sydney IVF Limited, priority 2010, published 2013).

Assays:
Type in all cases: cell-based, human
hESC [1] = assay: Feeder layer-free monolayer hESC culture on collagen I with protectants/modulators; conditions: for doubling time: collagen I coating + Y-27632 (10 μM), SIVF019 (FIG. 4)
Experimental: A single cell suspension was prepared similar to Example 4 by first washing a T25 flask with 5 ml PBS followed by trypsinising the cells with 2 ml 0.05% trypsin/5 mM EDTA, incubating at 37° C. for 10 mins and resuspending in 10 ml DMEM medium containing 10% FBS with vigorous pipetting. Cell number and viability was determined using the NucleoCounter and an appropriate number of cells centrifuged at 250×g for 4 mins prior to resuspension in conditioned KSR medium with 20 ng/ml bFGF plus additives. Conditioned KSR medium was produced by incubation of KSR medium on mitomycin-C treated human foetal fibroblasts for 48 hrs prior to harvest and storage at −20° C. As protectants/modulators the following additives were tested: • 1. 10 μM Y-27632 • 2. 20 μM OPH109 • 3. 2.5-10 μM blebbistatin • 4. 20 μM OPH109+2.5-10 μM blebbistatin
Cells were plated in collagen I (Cell Science and Technologies) coated 96 well optical bottom plates (BD) at a density of 2×10^4 cells/cm^2, and incubated at 37° C./5% CO2/5% O2. Media were changed on every 2nd day thereafter. […] This toxic effect could in turn be counteracted by using OPH109 in addition to blebbistatin. After 4-5 days in culture cells were fixed and immunofluorescence stained for the pluripotency markers Oct-3/4, SSEA-4 and Tra-1-81 as well as the early differentiation marker CD29. The cells were imaged and analysed using an IN Cell Analyzer 1000 and IN Cell Developer Toolbox 1.7 software. FIG. 3 summarises the results for 2 cell lines, indicating the ability of protectants/modulators to facilitate feeder-free monolayer culture of undifferentiated hESC. Next, the growth rate of monolayer hESC was assessed by imagining of Hoechst (Invitrogen) stained wells using the IN Cell Analyzer 1000 in 24 hr intervals. Cell number was determined by analysis using IN Cell Developer Toolbox 1.7 and IN Cell Analyzer 1000 Workstation 3.5 software. […] There was no significant difference in cell number or proliferation between uncoated and collagen I coated growth surfaces.

hESC [2] = assay: Expansion of single-cell dissociated hESC on feeder cells using protectants in the culture medium
Experimental: Organ culture dishes with various hESC lines (Table 1) were washed once with 1 ml PBS and then dislodged by adding ˜0.2 ml 0.05% trypsin/5 mM EDTA and incubating at 37° C. for 10 mins. After the incubation 1 ml DMEM medium containing 10% FBS was added to inhibit the trypsin, and a single cell suspension was obtained by vigorous pipetting. The cells were counted, pelleted by centrifugation at 250×g for 4 min and resuspended in 5 ml KSR medium containing 20 ng/ml bFGF and 20 μM OPH109, a potent, cell permeable inhibitor of several caspases. The cell suspension was then transferred to a T25 culture flask containing fresh, mitomycin C treated human embryonic fibroblast feeder layer cells and incubated at 37° C., 5% CO2 and 5% O2. The medium was changed after 2 days (and every 2 days thereafter) using KSR medium plus 4 ng/ml bFGF. […] Over the course of 8-10 days these colonies continued growing in size. In contrast, control cultures set up in the same way but without OPH109 in the initial culture medium only contained very few hESC colonies, in concordance with the reported poor viability of hESC after single cell dissociation.
After 8-10 days the cells were harvested by preparing a single cell suspension using trypsin/EDTA as described above. Table 3 list the numbers of cells obtained for various cell lines, indicating a 10-15 fold expansion in a single step. The cells could be used for subsequent experiments or further expansion by plating 10,000 cells/cm^2 into culture vessels with fresh feeder layer cells using KSR medium plus 20 ng/ml bFGF and 20 μM OPH109 as the initial culture medium.
In another experiment, single cell suspensions were prepared from hESC cells grown in organ culture dishes using trypsin/EDTA as described above. Cell were then resuspended in 5 ml KSR medium containing 20 ng/ml bFGF and 2.5 μM blebbistatin, a potent, cell permeable inhibitor of myosin II. The cell suspension was then transferred to a T25 culture flask containing fresh, mitomycin C treated human embryonic fibroblast feeder layer cells and incubated at 37° C., 5% CO2 and 5% O2. The medium was changed after 2 days (and every 2 days thereafter) using KSR medium plus 4 ng/ml bFGF. […] Colonies continued to grow in size and density over 8-10 days until the cultures were passaged again for cell counting (summarised in Table 4) and replating of 2,000-10,000 cells/cm^2 into culture vessels with fresh feeder layer cells using KSR medium plus 20 ng/ml bFGF and 2.5 μM blebbistatin as the initial culture medium. Using this method cells were expanded for >10 passages, while maintaining their pluripotency and normal karyotypes.

SIVF019 hESC = assay: Feeder free expansion of hESC using monolayer culture; conditions: SIVF019 (collagenase passaged stock), within 9 days, 3 passages, 10 μM Y-27632 at plating, collagen I
Experimental: Manually passaged and collagenase passaged hESC lines (Table 1) grown on feeder cells were dissociated into single cells using 0.05% trypsin/5 mM EDTA as described in Example 5. Cells were plated into a collagen I coated plates at ˜2×10^4/cm^2 in Conditioned KSR medium with 20 ng/ml bFGF and 10 μM Y-27632, and incubated at 37° C./5% CO2/5% O2 (passage 1). The medium was changed the following day, then every 2nd day until cells reached ˜80% confluency. Cells were then dissociated into single cells using the 0.05% trypsin/5 mM EDTA protocol, with the exception of incubation with 0.05% trypsin/5 mM EDTA for 3 mins only, counted and plated at ˜2×10^4/cm^2 in the above described medium (passage 2). This process was repeated when cells reached confluency (passage 3). At each of the 3 passages, some of the dissociated cells were plated into 96 well plates for pluripotency assessment as described in Example 6. Within 9 days, the theoretical cell number obtained for SIVF019 (collagenase passaged stock) was 24 fold that originally plated (FIG. 6A). Manually passaged hESC SIVF002, SIVF006 and SIVF021 could also be successfully expanded as a monolayer (FIG. 6B).

hESC [3] = assay: Expansion of single-cell dissociated hESC on feeder cells using protectants in the culture medium; conditions: Y27632 as protectant in the culture medium, on feeders

Cc1ccc2c(c1)C(=O)C1(O)CCN(c3ccccc3)C1=N2 (stereo not drawn) [blebbistatin]
toxicity (hESC [1]; blebbistatin 2.5-10 μM, feeder-free on collagen I): increased toxicity at higher concentrations
concentration at which most potent as protectant/modulator (hESC [1]; tested 2.5-10 μM, feeder-free on collagen I): 2.5 µM
number of passages cells were expanded (pluripotency and normal karyotypes maintained) (hESC [2]; 2.5 μM blebbistatin in initial culture medium, 2,000-10,000 cells/cm^2): > 10 passages
Viable cells after 1 expansion step (hESC [2]; SIVF002, 2.5 μM blebbistatin, from 5.7 × 10^4 cells in organ culture dish to T25 flask): 1.5 × 10^6 cells
Viable cells after 1 expansion step (hESC [2]; SIVF019 Exp 1, 2.5 μM blebbistatin, from 6.6 × 10^4 cells in organ culture dish): 3.4 × 10^6 cells
Viable cells after 1 expansion step (hESC [2]; SIVF019 Exp 2, 2.5 μM blebbistatin, from 2.5 × 10^5 cells in organ culture dish): 2.4 × 10^6 cells
Viable cells after 1 expansion step (hESC [2]; SIVF019 Exp 3, 2.5 μM blebbistatin, from 2.5 × 10^5 cells in organ culture dish): 3.4 × 10^6 cells
Viable cells after 1 expansion step (hESC [2]; SIVF024, 2.5 μM blebbistatin, from 2.6 × 10^5 cells in organ culture dish): 1.6 × 10^6 cells
Viable cells after 1 expansion step (hESC [2]; SIVF048, 2.5 μM blebbistatin, from 2.3 × 10^5 cells in organ culture dish): 2.0 × 10^6 cells
protectant strength compared with OPH109 (hESC [2]; allows lower initial plating densities and greater expansion): more powerful protectant than OPH109

CC(C)[C@H](NC(=O)c1ccc2ccccc2n1)C(=O)N[C@@H](CC(=O)O)C(=O)COc1c(F)cccc1F [OPH109, Quinoline-Val-Asp-Difluorophenoxymethylketone]
cell morphology in feeder-free culture (hESC [1]; 20 μM OPH109 by itself, collagen I coated 96 well plates): changed to larger cytoplasm/nuclear ratios indicating cell differentiation
number of passages cell lines were maintained (typical morphology, pluripotency markers, stable karyotype kept) (hESC [2]; 20 μM OPH109 in initial culture medium, 10,000 cells/cm^2): > 10 passages
expansion per passage (hESC [2]; 20 μM OPH109 in initial culture medium, >10 passages): 10-15 fold
random images (10x objective) in which colonies were observed (hESC [2]; 20 μM OPH109 in initial culture medium, control without OPH109 1 out of 10): 6 out of the 10
Viable cells after 1 expansion step (hESC [2]; SIVF006, 20 μM OPH109, from 1.23 × 10^5 cells in organ culture dish to T25 flask, 8-10 days): 1.97 × 10^6 cells
Viable cells after 1 expansion step (hESC [2]; SIVF019, 20 μM OPH109, starting cells not determined, T25 flask, 8-10 days): 3.1 × 10^6 cells
Viable cells after 1 expansion step (hESC [2]; SIVF021, 20 μM OPH109, from 2.19 × 10^5 cells in organ culture dish to T25 flask, 8-10 days): 3.00 × 10^6 cells
Viable cells after 1 expansion step (hESC [2]; SIVF022, 20 μM OPH109, from 3.99 × 10^5 cells in organ culture dish to T25 flask, 8-10 days): 4.40 × 10^6 cells
expansion in a single step (hESC [2]; various cell lines, 20 μM OPH109, 8-10 days): 10-15 fold

C[C@@H](N)[C@H]1CC[C@H](C(=O)Nc2ccncc2)CC1 [Y-27632]
theoretical cell number relative to that originally plated (SIVF019 hESC): 24 fold
doubling time (hESC [1]; between 24 hrs and 48 hrs post-plating): 11 h
doubling time (hESC [1]; between 48 hrs and 72 hrs post-plating): 17 h
morphology of the colonies (hESC [3]): flat monolayers of small cells with high nuclear to cytoplasmic ratios
cell viability after dissociation into single cell suspensions (hESC [2]; Y27632 as protectant in the culture medium, on feeders): dramatically increased cell viability
